In PubChem BioAssay (NCI) one finds TGI data, which are given here for 17 compounds.

Test systems include IGROV1 ovarian; ACHN renal; HCC-2998 colon; U251 CNS; HL-60(TB) leukemia; UACC-257 melanoma; SNB-19 CNS; EKVX NSCLC; HT29 colon.
Holding throughout (assay): NCI-60 cell line screen, 48 h

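Five compound concentrations were applied to cells in 96-well plates for 48 hours; endpoints were derived by simple linear interpolation of the resulting dose-response curve. TGI: total growth inhibition.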

In the case of `COc1ccc(N=c2ssc3c(=S)ssc23)cc1`, the TGI in the assay with IGROV1 ovarian is 26.3 µM; in the assay with ACHN renal it was over 100 µM; with HCC-2998 colon it was over 100 µM; with U251 CNS, 96.7 µM; in the assay on HL-60(TB) leukemia it was 28.2 µM.
On to `c1ccc(SC(CCCCC(Sc2ccccc2)Sc2ccccc2)Sc2ccccc2)cc1`, for which the TGI with ACHN renal, with HCC-2998 colon, in the assay with UACC-257 melanoma, with SNB-19 CNS, with EKVX NSCLC and in the assay with U251 CNS was over 100 µM in each case. Moreover, in the assay with HL-60(TB) leukemia, the TGI is over 100 µM.
With `Cn1cnc2nc(Cl)nc(NC(C)(C)C(C)(C)O)c21`, the TGI in the assay with IGROV1 ovarian, in the assay with ACHN renal, with HCC-2998 colon, in the assay on UACC-257 melanoma, in the assay on SNB-19 CNS and with EKVX NSCLC was over 100 µM in each case. Also, the TGI in the assay on U251 CNS, in the assay on HT29 colon and in the assay on HL-60(TB) leukemia was over 100 µM throughout.
Take `C=CCc1cc(OC)c2c(c1)C(O)CC(c1ccccc1)O2` (centres undefined): the TGI in the assay on IGROV1 ovarian, with ACHN renal, in the assay on HCC-2998 colon, with UACC-257 melanoma, in the assay on SNB-19 CNS and in the assay on EKVX NSCLC was over 100 µM each time. Moreover, the TGI in the assay on U251 CNS, in the assay on HT29 colon and in the assay on HL-60(TB) leukemia was over 100 µM each time.
With `CCOC(=O)C(C)(c1cn(C)c2ccccc12)c1cn(C)c2ccccc12`, the TGI in the assay with IGROV1 ovarian, in the assay with ACHN renal, in the assay on HCC-2998 colon, with UACC-257 melanoma, in the assay on EKVX NSCLC and in the assay with U251 CNS was over 100 µM in each case. The TGI with HT29 colon and in the assay on HL-60(TB) leukemia was over 100 µM in each case.
For the compound `Brc1cccc(C2SCc3nc4ccccc4n32)c1` (centres undefined), the TGI with IGROV1 ovarian is 98.9 µM; with ACHN renal it was over 100 µM; with EKVX NSCLC it was 55.2 µM; in the assay with U251 CNS, 36.3 µM; with HT29 colon, 52.3 µM; in the assay on HL-60(TB) leukemia it was 34.9 µM.
Consider `CSCC1CC(c2ccc(Cl)cc2)=NO1` (centres undefined), for which the TGI in the assay on IGROV1 ovarian, in the assay on ACHN renal, in the assay with HCC-2998 colon, in the assay on UACC-257 melanoma, with EKVX NSCLC and in the assay with U251 CNS was over 100 µM throughout. Besides, the TGI in the assay with HT29 colon and with HL-60(TB) leukemia was over 100 µM in each case.
On to `Cc1cc2c(C)n(Cc3ccc(Cl)cc3Cl)nc2c(C#N)c1C`, for which the TGI in the assay on IGROV1 ovarian is over 100 µM; in the assay on ACHN renal, over 100 µM; in the assay on HCC-2998 colon, over 100 µM; in the assay with UACC-257 melanoma, over 100 µM; in the assay on SNB-19 CNS, 45.7 µM; in the assay on EKVX NSCLC it was over 100 µM. Also, the results for the TGI with U251 CNS, with HT29 colon and with HL-60(TB) leukemia were over 61.9 µM, over 100 µM and over 100 µM, respectively.
In the case of `c1ccc2c(C3NCCc4[nH]cnc43)cccc2c1` (centres undefined), the TGI in the assay on IGROV1 ovarian, in the assay on ACHN renal, in the assay with HCC-2998 colon, with UACC-257 melanoma, with U251 CNS and with HT29 colon was over 100 µM each time.
For the compound `CCC1CN2CCc3cc(OC)c(OC)cc3C2CC1CC1c2cc(OC)c(OC)cc2CCN1C(=O)C1CCCN1C(=O)OCc1ccccc1` (centres undefined), the TGI with IGROV1 ovarian amounted to 33.4 µM; with ACHN renal, 32.1 µM; with HCC-2998 colon it was 30 µM; in the assay on UACC-257 melanoma, 30.8 µM; in the assay with SNB-19 CNS it was 73.5 µM; with EKVX NSCLC it was 43.3 µM. The TGI with U251 CNS worked out at 28.3 µM; in the assay on HT29 colon, 27.4 µM; in the assay on HL-60(TB) leukemia, 28.9 µM.
In the case of `CCCCCCc1cc(C(=O)Nc2cccc(C(F)(F)F)c2)nc(N)n1`, the TGI in the assay on IGROV1 ovarian, in the assay with ACHN renal, in the assay on HCC-2998 colon, with UACC-257 melanoma, in the assay on SNB-19 CNS and in the assay on EKVX NSCLC was over 100 µM in each case. The TGI in the assay on U251 CNS, in the assay on HT29 colon and in the assay on HL-60(TB) leukemia was over 100 µM throughout.
For the compound `O=C1C(=O)N(c2ccc(Cl)c(Cl)c2)C(=O)C(=O)C1c1nc2ccccc2s1`, the TGI in the assay on IGROV1 ovarian, in the assay with ACHN renal, in the assay with HCC-2998 colon, with UACC-257 melanoma, in the assay with SNB-19 CNS and with EKVX NSCLC was over 100 µM in each case. Besides, the TGI in the assay on U251 CNS and in the assay on HT29 colon was over 100 µM throughout.
Turning to `CC(=O)OC1CCn2nnc(CO[Si](C)(C)C(C)(C)C)c21` (centres undefined), the TGI in the assay on IGROV1 ovarian, in the assay on ACHN renal, in the assay on HCC-2998 colon, with UACC-257 melanoma, in the assay with SNB-19 CNS and with EKVX NSCLC was over 100 µM each time. In addition, the TGI in the assay with U251 CNS and in the assay with HT29 colon was over 100 µM in each case.
With `CCOC(=O)C(=O)Nc1c(CC)cccc1C(C)C`, the TGI with IGROV1 ovarian, in the assay with ACHN renal, in the assay with HCC-2998 colon, in the assay with UACC-257 melanoma, in the assay on SNB-19 CNS and in the assay with EKVX NSCLC was over 100 µM in each case. For the same compound, the TGI in the assay with U251 CNS and with HT29 colon was over 100 µM each time.
On to `O=C1OC(CCCl)(c2ccccc2)CC1CN1CCOCC1` (centres undefined), for which the TGI is 50.1 µM in the assay on IGROV1 ovarian; over 100 µM in the assay with ACHN renal; over 100 µM in the assay on HCC-2998 colon; 73.4 µM with UACC-257 melanoma; 40.5 µM with EKVX NSCLC; over 100 µM in the assay with U251 CNS. Besides, the results for the TGI in the assay on HT29 colon and with HL-60(TB) leukemia were 46 µM and 26.5 µM, respectively.
Take `O=C(O)C1(P(=O)(O)O)CC1`: the TGI in the assay on IGROV1 ovarian, with ACHN renal, with HCC-2998 colon, in the assay with UACC-257 melanoma, with SNB-19 CNS and in the assay with EKVX NSCLC was over 100 µM in each case. Also, the TGI with U251 CNS and in the assay with HL-60(TB) leukemia was over 100 µM throughout.
For `N#CC(C(=O)CCC(=O)Nc1cccc(Cl)c1)c1ccccc1` (centres undefined), the TGI with IGROV1 ovarian, with ACHN renal, with HCC-2998 colon, with UACC-257 melanoma, in the assay on SNB-19 CNS and with EKVX NSCLC was over 100 µM throughout. The TGI with U251 CNS, in the assay with HT29 colon and with HL-60(TB) leukemia was over 100 µM in each case.
